Entries after “also recorded” stand apart in the source; their conditions may differ.
Key:
S. mutans [1] = assay type: cell-based, Streptococcus mutans; settings: S. mutans
Description: Typically, the in vitro antimicrobial activity of antimicrobial agents is tested using standard NCCLS bacterial inhibition assays, or MIC tests (see, National Committee on Clinical Laboratory Standards “Performance Standards for Antimicrobial Susceptibility Testing,” NCCLS Document M100-S5 Vol. 14, No. 16, December 1994; “Methods for dilution antimicrobial susceptibility test for bacteria that grow aerobically-Third Edition,” Approved Standard M7-A3, National Committee for Clinical Standards, Villanova, Pa.).
Briefly, ˜1×10^5 cfu/mL bacteria were diluted in TH (S. mutans), or Mueller-Hinton (MH) broth (all other organisms) and distributed to 96-well plates. Serially-diluted (2-fold) peptides were then added and the plates incubated at 37° C. for 18-24 h. […] All experiments were conducted 10 times.

F. nucleatum = test: Kill or inhibit growth/proliferation; morphology, biofilm and growth disruption (Tables 5, 6); assay type: cell-based, Fusobacterium nucleatum; parameters: key: A: Peptide aggregates; B: Less hyphal formation; Clumps; Diffuse clumps and small polyps; F: Diffuse growth; H: Thin; I: Growth inhibition; Microcolony formation; Rippled; Small polyps; Thick; W: Halo formation on top, microlonies on bottom; further: test concentration or dose not given here
S. epidermidis = test: as above; assay type: cell-based, Staphylococcus epidermidis; parameters: key: A: Peptide aggregates; B: Less hyphal formation; Clumps; Diffuse clumps and small polyps; F: Diffuse growth; H: Thin; I: Growth inhibition; Microcolony formation; Rippled; Small polyps; Thick; W: Halo formation on top, microlonies on bottom
MRSA = test: as above; assay type: cell-based, Methicillin-resistant Staphylococcus aureus; parameters: key: A: Peptide aggregates; B: Less hyphal formation; Clumps; Diffuse clumps and small polyps; F: Diffuse growth; H: Thin; I: Growth inhibition; Microcolony formation; Rippled; Small polyps; Thick; W: Halo formation on top, microlonies on bottom; further: test concentration or dose not given here
P. aeruginosa = test: as above; assay type: cell-based, Pseudomonas aeruginosa; parameters: key: A: Peptide aggregates; B: Less hyphal formation; Clumps; Diffuse clumps and small polyps; F: Diffuse growth; H: Thin; I: Growth inhibition; Microcolony formation; Rippled; Small polyps; Thick; W: Halo formation on top, microlonies on bottom; further: test concentration or dose not given here
C. jeikeium = test: as above; assay type: cell-based, Corynebacterium jeikeium; parameters: key: A: Peptide aggregates; B: Less hyphal formation; Clumps; Diffuse clumps and small polyps; F: Diffuse growth; H: Thin; I: Growth inhibition; Microcolony formation; Rippled; Small polyps; Thick; W: Halo formation on top, microlonies on bottom; further: test concentration or dose not given here
C. jejuni = test: as above; assay type: cell-based, Campylobacter jejuni; parameters: key: A: Peptide aggregates; B: Less hyphal formation; Clumps; Diffuse clumps and small polyps; F: Diffuse growth; H: Thin; I: Growth inhibition; Microcolony formation; Rippled; Small polyps; Thick; W: Halo formation on top, microlonies on bottom; further: test concentration or dose not given here
M. luteus = test: as above; assay type: cell-based, Micrococcus luteus; parameters: key: A: Peptide aggregates; B: Less hyphal formation; Clumps; Diffuse clumps and small polyps; F: Diffuse growth; H: Thin; I: Growth inhibition; Microcolony formation; Rippled; Small polyps; Thick; W: Halo formation on top, microlonies on bottom
C. albicans = test: as above; assay type: cell-based, Candida albicans; parameters: key: A: Peptide aggregates; B: Less hyphal formation; Clumps; Diffuse clumps and small polyps; F: Diffuse growth; H: Thin; I: Growth inhibition; Microcolony formation; Rippled; Small polyps; Thick; W: Halo formation on top, microlonies on bottom; further: test concentration or dose not given here
S. pneumoniae = test: as above; assay type: cell-based, Streptococcus pneumoniae; parameters: key: A: Peptide aggregates; B: Less hyphal formation; Clumps; Diffuse clumps and small polyps; F: Diffuse growth; H: Thin; I: Growth inhibition; Microcolony formation; Rippled; Small polyps; Thick; W: Halo formation on top, microlonies on bottom; further: test concentration or dose not given here
microorganisms = test: Peptides having multiple activities (targeting/binding, antimicrobial, growth or phenotype altering)
Source text: In certain embodiments, peptides described herein can have multiple activities. Thus for example, a peptide can have both binding/targeting activity and antimicrobial activity. Such peptides can be used, e.g., in a chimeric construct, for any or all of these properties. Thus, for example, a peptide designated “B” in Table 8 can be used as a targeting peptide. If it is also designated G or M it can also be used for antimicrobial activity.

[2] = tested on: microorganisms (e.g., bacteria, yeasts, fungi); test: Targeting peptide binding to target microorganisms (Table 3); settings: preferably 1x PBS; for Target(s) (microorganisms bound by the targeting peptide): peptide binding in aqueous buffers varied by peptide solubility
S. mutans [3] = test: Kill or inhibit growth/proliferation; morphology, biofilm and growth disruption (Tables 5, 6); assay type: cell-based, Streptococcus mutans; parameters: key: A: Peptide aggregates; B: Less hyphal formation; Clumps; Diffuse clumps and small polyps; F: Diffuse growth; H: Thin; I: Growth inhibition; Microcolony formation; Rippled; Small polyps; Thick; W: Halo formation on top, microlonies on bottom; further: test concentration or dose not given here
E. coli = test: as above; assay type: cell-based, Escherichia coli; parameters: key: A: Peptide aggregates; B: Less hyphal formation; Clumps; Diffuse clumps and small polyps; F: Diffuse growth; H: Thin; I: Growth inhibition; Microcolony formation; Rippled; Small polyps; Thick; W: Halo formation on top, microlonies on bottom; further: test concentration or dose not given here
E. faecalis = test: as above; assay type: cell-based, Enterococcus faecalis; parameters: key: A: Peptide aggregates; B: Less hyphal formation; Clumps; Diffuse clumps and small polyps; F: Diffuse growth; H: Thin; I: Growth inhibition; Microcolony formation; Rippled; Small polyps; Thick; W: Halo formation on top, microlonies on bottom; further: test concentration or dose not given here
B. subtilis = test: as above; assay type: cell-based, Bacillus subtilis; parameters: key: A: Peptide aggregates; B: Less hyphal formation; Clumps; Diffuse clumps and small polyps; F: Diffuse growth; H: Thin; I: Growth inhibition; Microcolony formation; Rippled; Small polyps; Thick; W: Halo formation on top, microlonies on bottom; further: test concentration or dose not given here
Wherever Organism, effect (morphology, biofilm and growth disruption) is given: test concentration or dose not given here.
Wherever Organism, effect is given: test concentration or dose not given here.

GLGRVIGRLIKQIIWRR [Peptide K-1] was tested, and the MIC (S. mutans [1]) was “S. mutans, 25 μM”.
In the case of KILKFLFKKVF [Peptide K-8], the MIC (S. mutans [1]) was “S. mutans, 4 μM”.
For “PF-C214 (GGHKQLVIEPLVSQ; Peptide with targeting and/or antimicrobial activity)”, the “Organism, effect (morphology, biofilm and growth disruption)” value (F. nucleatum) was “F. nucleatum (T)”.
For “PF-140: peptide having multiple activities (FHRRVIRASEWALTTRSFSTPLRSAAR; Peptide with targeting and/or antimicrobial activity)”, the “Organism, effect” value (S. epidermidis) was “S. epidermidis (D)”, the “Organism, effect” value (MRSA) was “MRSA (M)” and the “Organism, effect” value (P. aeruginosa) was “P. aeruginosa (A)”. For the same substance, the “Organism, effect” value (C. jeikeium) was “C. jeikeium (D)”, the “Organism, effect” value (C. jejuni) was “C. jejuni (D)” and the “Organism, effect” value (M. luteus) was “M. luteus (R)”. The “Organism, effect” value (C. albicans) was “C. albicans (B)”, the “Organism, effect” value (S. pneumoniae) was “S. pneumoniae (D)” and the Activities (microorganisms) was “G B”.
With “PF-746: peptide having multiple activities (FLGNSQYFTRK; Peptide with targeting and/or antimicrobial activity)” the “Target(s) (microorganisms bound by the targeting peptide)” value [2] was “S. epidermidis; also recorded: M. luteus; also recorded: E. coli; also recorded: C. albicans; also recorded: S. pneumoniae; also recorded: E. faecalis; also recorded: C. jeikeium”, the “Organism, effect (morphology, biofilm and growth disruption)” value (S. epidermidis) was “S. epidermidis (C)” and the “Organism, effect (morphology, biofilm and growth disruption)” value (MRSA) was “MRSA (C)”. The “Organism, effect (morphology, biofilm and growth disruption)” value (P. aeruginosa) was “P. aeruginosa (A)”, the “Organism, effect (morphology, biofilm and growth disruption)” value (M. luteus) was “M. luteus (C)” and the “Organism, effect (morphology, biofilm and growth disruption)” value (S. mutans [3]) was “S. mutans (D)”. The “Organism, effect (morphology, biofilm and growth disruption)” value (E. coli) was “E. coli (C)”, the “Organism, effect (morphology, biofilm and growth disruption)” value (S. pneumoniae) was “S. pneumoniae (C)” and the Activities (microorganisms) was “G B”.
NYRLVNAIFSKIFKKKFIKF [Peptide K-7] was tested, and the MIC (S. mutans [1]) was “S. mutans, 12.5 μM”.
In the case of KKFKKFKVLKIL [Peptide K-18], the MIC (S. mutans [1]) was “S. mutans, 16 μM”.
LRKFLHKLF [Peptide K-14] was tested, and the MIC (S. mutans [1]) was “S. mutans, 8 μM”.
With VYRKRKSILKIYAKLKGWH [Peptide K-2] the MIC (S. mutans [1]) was “S. mutans, 12.5 μM”.
In the case of FIRKFLKKWLL [Peptide K-9], the MIC (S. mutans [1]) was “S. mutans, 4 μM”.
In the case of GWLKMFKKIIGKFGKF [Peptide K-21], the MIC (S. mutans [1]) was “S. mutans, 8 μM”.
For “PF-425: peptide having multiple activities (MMELVLKTIIGPIVVGVVLRIVDKWLNKDK; Peptide with targeting and/or antimicrobial activity)”, the “Target(s)” value ([2]; microorganism(s) the targeting peptide binds, peptide binding conducted in aqueous buffers varied by peptide solubility) was “S. epidermidis and M. luteus and E. coli and P. aeruginosa and C. albicans and MRSA and S. pneumoniae and C. jeikeium”, the “Organism, effect” value (S. epidermidis) was “S. epidermidis (D)” and the “Organism, effect” value (MRSA) was “MRSA (D)”. The “Organism, effect” value (P. aeruginosa) was “P. aeruginosa (A)”, the “Organism, effect” value (C. jejuni) was “C. jejuni (D)” and the “Organism, effect” value (C. albicans) was “C. albicans (A)”. The “Organism, effect” value (E. faecalis) was “E. faecalis (D)”, the “Organism, effect” value (E. coli) was “E. coli (C)” and the “Organism, effect” value (S. pneumoniae) was “S. pneumoniae (D)”. For the same substance, the Activities (microorganisms) was “G B”.
With LRKNLRWLF [Peptide K-15] the MIC (S. mutans [1]) was “S. mutans, 4 μM”.
“PF-761: peptide having multiple activities (SKFELVNYASGCSCGADCKCASETECKCASKK; Peptide with targeting and/or antimicrobial activity)” was tested, and the “Target(s) (microorganisms bound by the targeting peptide)” value [2] was “S. epidermidis and M. luteus and P. mirabilis and P. aeruginosa and C. albicans and MRSA and S. pneumoniae and E. faecalis”, the “Organism, effect (morphology, biofilm and growth disruption)” value (S. epidermidis) was “S. epidermidis (C)” and the “Organism, effect (morphology, biofilm and growth disruption)” value (MRSA) was “MRSA (D)”. For the same substance, the “Organism, effect (morphology, biofilm and growth disruption)” value (P. aeruginosa) was “P. aeruginosa (C)”, the “Organism, effect (morphology, biofilm and growth disruption)” value (M. luteus) was “M. luteus (C)” and the “Organism, effect (morphology, biofilm and growth disruption)” value (S. mutans [3]) was “S. mutans (D)”. For the same substance, the “Organism, effect (morphology, biofilm and growth disruption)” value (E. coli) was “E. coli (C)”, the “Organism, effect (morphology, biofilm and growth disruption)” value (S. pneumoniae) was “S. pneumoniae (C)” and the Activities (microorganisms) was “G B”.
For GILKKLFTKVF [Peptide K-13], the MIC (S. mutans [1]) was “S. mutans, 16 μM”.
FLKFLKKFFKKLKY [Peptide K-20] was tested, and the MIC (S. mutans [1]) was “S. mutans, 8 μM”.
In the case of KILKFLFKQVF [Peptide K-11], the MIC (S. mutans [1]) was “S. mutans, 4 μM”.
“PF-S003: peptide having multiple activities (ALALLKQDLLNFEGRGRIITSTYLQFNEGCVP; Peptide with targeting and/or antimicrobial activity)” was tested, and the “Organism, effect (morphology, biofilm and growth disruption)” value (S. epidermidis) was “S. epidermidis (R)”, the “Organism, effect (morphology, biofilm and growth disruption)” value (MRSA) was “MRSA (M)” and the “Organism, effect (morphology, biofilm and growth disruption)” value (P. aeruginosa) was “P. aeruginosa (A)”. The “Organism, effect (morphology, biofilm and growth disruption)” value (C. jeikeium) was “C. jeikeium (D)”, the “Organism, effect (morphology, biofilm and growth disruption)” value (C. jejuni) was “C. jejuni (D)” and the “Organism, effect (morphology, biofilm and growth disruption)” value (M. luteus) was “M. luteus (R)”. The “Organism, effect (morphology, biofilm and growth disruption)” value (C. albicans) was “C. albicans (A)”, the “Organism, effect (morphology, biofilm and growth disruption)” value (B. subtilis) was “B. subtilis (A)” and the “Organism, effect (morphology, biofilm and growth disruption)” value (S. pneumoniae) was “S. pneumoniae (D)”. For the same substance, the Activities (microorganisms) was “G B”.
In the case of LLKLLKLKKLKF [Peptide K-19], the MIC (S. mutans [1]) was “S. mutans, 16 μM”.
For KILKKLFKFVF [Peptide K-12], the MIC (S. mutans [1]) was “S. mutans, 8 μM”.
KLFKFLRKHLL [Peptide K-10] was tested, and the MIC (S. mutans [1]) was “S. mutans, 4 μM”.
For FTRKFLKFLHL [Peptide K-17], the MIC (S. mutans [1]) was “S. mutans, 8 μM”.
In the case of GIFKKFVKILYKVQKL [Peptide K-22], the MIC (S. mutans [1]) was “S. mutans, 8 μM”.
